Assay results reported in US9409952B2, “Peptide-compound cyclization method” (Chugai Seiyaku Kabushiki Kaisha, priority 2011, dated 2016).
Where two headings read alike, the source gives them in different places. Starred links: 1 amine or outer side, 2 acyl side, 3 side chain; linkers in the order of their positions; H or OH if unused. Positions of bridges follow the written chain, without caps; N, C: chain ends. Non-standard residues stand in square brackets, D forms with d. Residues, ends and D or L forms follow the SMILES beside them. ξ: configuration not given here. *: point of attachment. X2 = O=C(C[C@H](N[*:1])C(F)(F)F)[*:2]; NMeF = CN[C@@H](Cc1ccccc1)C(=O)O; NMeI = CC[C@H](C)[C@H](NC)C(=O)O; NMeβAla = CN(CCC(=O)[*:2])[*:1]; NMeL = CN[C@@H](CC(C)C)C(=O)O; Thr(3ξ) = CC(O)[C@H](N)C(=O)O; ξNMeF = CNC(Cc1ccccc1)C(=O)O; NMeV = CN[C@H](C(=O)O)C(C)C; NMeS = CN[C@@H](CO)C(=O)O; NMeA = CN[C@@H](C)C(=O)O; Piperidide = C1CCN(*)CC1; dNMeA = CN[C@H](C)C(=O)O; Sar = CNCC(=O)O; tBu = CC(C)(C)*

Legend:
[1] = PAMPA (parallel artificial membrane permeability assay); format: in vitro ADME; settings: PAMPA
Procedure, shortened: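 Artificial membrane was 10% (w/v) egg lecithin plus 0.5% (w/v) cholesterol in dodecane on a PVDF filter. A 10 mM DMSO stock was added at 0.5% (v/v) to donor buffer (50 mM MOPSO, pH 6.5, 5.0% glycocholic acid). After 18 h at 37 °C, LC/MS or LC/UV gave donor and acceptor levels for Pe.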

[2] = Metabolic stability in human hepatic microsome; format: in vitro ADME; settings: microsomes
[3] = membrane permeation rate (Pe), 50 mM MOPSO buffer pH 6.5 with 5.0% glycocholic acid, 37° C., 18 hours, read-out: iPAMPA Pe
[4] = pH 7.4, human hepatic microsome, NADPH(+), read-out: CL NADPH(+)

Row | SMILES | Papp at 18 hours, 50 µM [1, 3] | microsomal CLint at 1 uM [2, 4] | Papp at 18 hours, 50 µM ([1]; pH 6.5) | microsomal CLint at 1 uM ([2]; human, pH 7.4, CL NADPH(+))
1 | CC(C)C[C@H](NC(=O)[C@@H](NC(=O)[C@@H]1CCCN1C(=O)[C@@H]1CC(=O)N[C@H](C)C(=O)N(C)[C@@H](C)C(=O)N(C)[C@@H](Cc2ccccc2)C(=O)N(C)[C@@H](CC(C)C)C(=O)N[C@@H]([C@@H](C)O)C(=O)N(C)CC(=O)N(C)[C@@H](CC(C)C)C(=O)N[C@@H](COC(C)(C)C)C(=O)N(C)[C@@H](CC(C)C)C(=O)N1)C(C)C)C(=O)N1CCCCC1 [DP-579] ([dA][NMeA][NMeF][NMeL]T[Sar][NMeL]S(tBu)[NMeL]DPVL-Piperidide; lactam N-10) | 24 ×10⁻⁶ cm/s | 19 µL/min/mg | – | –
2 | CC[C@H](C)[C@@H]1NC(=O)[C@H](Cc2ccccc2)NC(=O)[C@H]([C@@H](C)O)NC(=O)CCN(C)C(=O)C[C@@H](C(=O)N2CCCCC2)NC(=O)[C@H](Cc2ccccc2)NC(=O)[C@H](Cc2ccccc2)NC(=O)CNC(=O)[C@H](CC(C)C)N(C)C(=O)[C@H](CC(C)C)NC1=O [DP-423] ([NMeβAla]TFIL[NMeL]GFFD-Piperidide; lactam N-10) | 15 ×10⁻⁶ cm/s | 110 µL/min/mg | – | –
3 | CC[C@H](C)[C@@H]1NC(=O)[C@H](C)NC(=O)C[C@@H](C(=O)N(C)[C@@H](C)C(=O)N[C@H](C(=O)N2CCC[C@H]2C(=O)N[C@H](C(=O)N[C@@H](C)C(=O)N2CCCCC2)C(C)C)[C@@H](C)CC)NC(=O)[C@@H]2CCCN2C(=O)[C@H](CC(C)C)NC(=O)[C@H](Cc2ccccc2)N(C)C(=O)[C@H]([C@@H](C)O)NC(=O)[C@H](Cc2ccccc2)N(C)C(=O)[C@H](C)N(C)C1=O [DP-665] (AI[NMeA][NMeF]T[NMeF]LPD[NMeA]IPVA-Piperidide; lactam N-9) | – | – | 4 ×10⁻⁶ cm/s | 77 µL/min/mg
4 | CC[C@H](C)[C@@H]1NC(=O)[C@H](CC(C)C)N(C)C(=O)[C@H](Cc2ccccc2)NC(=O)[C@@H](C)N(C)C(=O)C[C@@H](C(=O)N2CCCCC2)NC(=O)[C@H](Cc2ccccc2)NC(=O)[C@H](C(C)O)NC(=O)[C@@H]2CCCN2C(=O)[C@H](CC(C)C)N(C)C(=O)CNC(=O)[C@H](CC(C)C)N(C)C1=O (stereo partly drawn) [DP-162] ([dNMeA]F[NMeL]I[NMeL]G[NMeL]P[Thr(3ξ)]FD-Piperidide; lactam N-11) | 35 ×10⁻⁶ cm/s | 90 µL/min/mg | – | –
5 | CC(C)C[C@@H]1NC(=O)[C@@H](C(C)C)NC(=O)C[C@@H](C(=O)N2CCCCC2)NC(=O)[C@H](Cc2ccccc2)N(C)C(=O)[C@H](CC(C)C)N(C)C(=O)[C@H](Cc2ccccc2)NC(=O)[C@H](C)N(C)C(=O)[C@H]([C@@H](C)O)NC1=O [DP-701] ([dV]LT[NMeA]F[NMeL][NMeF]D-Piperidide; lactam N-8) | 31 ×10⁻⁶ cm/s | 69 µL/min/mg | – | –
6 | CC(C)C[C@H]1C(=O)NCC(=O)N(C)[C@@H](Cc2ccccc2)C(=O)N(C)[C@@H](C(C)C)C(=O)N[C@@H]([C@@H](C)O)C(=O)N[C@H](C(=O)N(C)[C@@H](Cc2ccccc2)C(=O)N(C)[C@@H](Cc2ccccc2)C(=O)N[C@@H](C)C(=O)N2CCCCC2)CC(=O)N(C)CC(=O)N[C@@H](C(C)C)C(=O)N(C)[C@@H](CC(C)C)C(=O)N[C@@H](Cc2ccccc2)C(=O)N1C [DP-303] ([Sar]V[NMeL]F[NMeL]G[NMeF][NMeV]TD[NMeF][NMeF]A-Piperidide; lactam N-10) | – | – | 1.2 ×10⁻⁶ cm/s | 27 µL/min/mg
7 | CC[C@H](C)[C@@H]1NC(=O)[C@@H](C(C)C)NC(=O)C[C@@H](C(=O)N2CCCCC2)NC(=O)[C@H](C)N(C)C(=O)[C@H](CC(C)C)N(C)C(=O)CN(C)C(=O)[C@H]([C@@H](C)O)NC(=O)[C@H](Cc2ccccc2)N(C)C(=O)[C@H](CC(C)C)N(C)C(=O)[C@H](C)NC(=O)[C@H](C(C)C)N(C)C(=O)[C@H](Cc2ccccc2)N(C)C1=O [DP-132] ([dV]I[NMeF][NMeV]A[NMeL][NMeF]T[Sar][NMeL][NMeA]D-Piperidide; lactam N-12) | 39 ×10⁻⁶ cm/s | 37 µL/min/mg | – | –
8 | CC[C@H](C)[C@@H]1NC(=O)[C@H](CC(C)C)NC(=O)[C@H](CC(C)C)N(C)C(=O)[C@H](CC(C)C)NC(=O)[C@H](CC(C)C)NC(=O)[C@H](Cc2ccccc2)NC(=O)[C@H](CC(C)C)NC(=O)[C@H](Cc2ccccc2)NC(=O)[C@H]([C@@H](C)O)NC(=O)CCN(C)C(=O)C[C@@H](C(=O)N2CCCCC2)NC1=O [DP-323] ([NMeβAla]TFLFLL[NMeL]LID-Piperidide; lactam N-11) | 7.8 ×10⁻⁶ cm/s | 182 µL/min/mg | – | –
9 | CC[C@H](C)[C@@H]1NC(=O)[C@H](CC(C)C)NC(=O)[C@H](C(C)C)NC(=O)[C@H](CC(C)C)N(C)C(=O)[C@H](CC(C)C)NC(=O)[C@H](Cc2ccccc2)NC(=O)[C@H]([C@@H](C)O)NC(=O)[C@H](C)N(C)C(=O)[C@H](CC(C)C)NC(=O)[C@H](C)N(C)C(=O)C[C@@H](C(=O)N2CCCCC2)NC1=O [DP-478] ([NMeA]L[NMeA]TFL[NMeL]VLID-Piperidide; lactam N-11) | 18 ×10⁻⁶ cm/s | 50 µL/min/mg | – | –
10 | CC(C)C[C@@H]1NC(=O)[C@H](CO)N(C)C(=O)C[C@@H](C(F)(F)F)NC(=O)[C@H](CC(C)C)N(C)C(=O)[C@H](CC(C)C)N(C)C(=O)[C@@H](C)NC(=O)[C@H](C)NC(=O)[C@H](CC(C)C)N(C)C(=O)[C@H](CC(C)C)NC(=O)[C@H](CC(C)C)N(C)C(=O)CN(C)C1=O [DP-657] (cyclo(A[dA][NMeL][NMeL][X2][NMeS]L[Sar][NMeL]L[NMeL])) | 24 ×10⁻⁶ cm/s | 157 µL/min/mg | – | –
11 | CC[C@H](C)[C@@H]1NC(=O)[C@H](CC(C)C)N(C)C(=O)[C@H](CC(C)C)N(C)C(=O)[C@H](C)N(C)C(=O)[C@H]([C@@H](C)O)NC(=O)[C@H](C(C)C)N(C)C(=O)[C@H](Cc2ccccc2)NC(=O)CN(C)C(=O)[C@H](C)N(C)C(=O)C[C@@H](C(=O)N2CCCCC2)NC1=O [DP-439] ([NMeA][Sar]F[NMeV]T[NMeA][NMeL][NMeL]ID-Piperidide; lactam N-10) | 34 ×10⁻⁶ cm/s | 139 µL/min/mg | – | –
12 | CC[C@H](C)[C@H]1C(=O)N(C)CC(=O)N(C)[C@@H](Cc2ccccc2)C(=O)N[C@H](C(=O)N2CCCCC2)CC(=O)N(C)CCC(=O)N(C)[C@@H](C(C)C)C(=O)N(C)[C@@H](CC(C)C)C(=O)N[C@@H](CC(C)C)C(=O)N[C@@H]([C@@H](C)O)C(=O)N(C)[C@@H](C)C(=O)N[C@@H](Cc2ccccc2)C(=O)N1C [DP-68] ([NMeβAla][NMeV][NMeL]LT[NMeA]F[NMeI][Sar][NMeF]D-Piperidide; lactam N-11) | – | – | 26 ×10⁻⁶ cm/s | 35 µL/min/mg
13 | CC[C@H](C)[C@H](NC(=O)[C@H](CC(C)C)N(C)C(=O)CN(C)C(=O)[C@@H](NC(=O)[C@@H]1CC(=O)N[C@H](C(C)C)C(=O)N[C@@H](C)C(=O)N[C@@H]([C@@H](C)O)C(=O)N(C)[C@@H](C)C(=O)N[C@@H](Cc2ccccc2)C(=O)N(C)[C@@H](CC(C)C)C(=O)N(C)[C@@H](Cc2ccccc2)C(=O)N(C)[C@@H](CC(C)C)C(=O)N1)C(C)C)C(=O)N1CCCCC1 [DP-939] ([dV]AT[NMeA]F[NMeL][NMeF][NMeL]DV[Sar][NMeL]I-Piperidide; lactam N-9) | 3.6 ×10⁻⁶ cm/s | 8 µL/min/mg | – | –
14 | CC(C)C[C@@H]1NC(=O)[C@H](C)NC(=O)C[C@@H](C(=O)N(C)[C@@H](C)C(=O)N[C@H](C(=O)N(C)[C@@H](Cc2ccccc2)C(=O)N(C)[C@@H](CC(C)C)C(=O)N[C@@H](C)C(=O)N2CCCCC2)[C@@H](C)O)NC(=O)[C@H](Cc2ccccc2)N(C)C(=O)[C@H](CC(C)C)N(C)C(=O)[C@H](C)NC(=O)[C@H](Cc2ccccc2)N(C)C(=O)[C@H](CC(C)C)N(C)C1=O [DP-574] (AL[NMeL][NMeF]A[NMeL][NMeF]D[NMeA]T[NMeF][NMeL]A-Piperidide; lactam N-8) | 1.2 ×10⁻⁶ cm/s | 113 µL/min/mg | – | –
15 | CC[C@H](C)[C@@H]1NC(=O)[C@H](CC(C)C)N(C)C(=O)CN(C)C(=O)[C@H]([C@@H](C)O)NC(=O)[C@@H](C)N(C)C(=O)C[C@@H](C(=O)N2CCCCC2)NC(=O)[C@H](CC(C)C)N(C)C(=O)[C@H](Cc2ccccc2)N(C)C(=O)[C@H](CC(C)C)N(C)C1=O [DP-512] ([dNMeA]T[Sar][NMeL]I[NMeL][NMeF][NMeL]D-Piperidide; lactam N-9) | 18 ×10⁻⁶ cm/s | 62 µL/min/mg | – | –
16 | CC[C@H](C)[C@@H]1NC(=O)[C@H](CC(C)C)NC(=O)[C@H](Cc2ccccc2)NC(=O)[C@H](CC(C)C)NC(=O)CN(C)C(=O)[C@H](Cc2ccccc2)NC(=O)[C@H](C)NC(=O)C[C@@H](C(=O)N2CCCCC2)NC(=O)[C@H](Cc2ccccc2)NC(=O)[C@H]([C@@H](C)O)NC1=O [DP-330] (AF[Sar]LFLITFD-Piperidide; lactam N-10) | 9.9 ×10⁻⁶ cm/s | 61 µL/min/mg | – | –
17 | CC[C@H](C)[C@@H]1NC(=O)[C@H](Cc2ccccc2)N(C)C(=O)[C@H](CC(C)C)N(C)C(=O)[C@H](Cc2ccccc2)N(C)C(=O)[C@H]([C@@H](C)O)NC(=O)CCN(C)C(=O)C[C@@H](C(=O)N(C)[C@@H](Cc2ccccc2)C(=O)N[C@@H](C)C(=O)N2CCCCC2)NC(=O)[C@H](CC(C)C)N(C)C(=O)[C@H](C)N(C)C(=O)[C@H](CC(C)C)N(C)C1=O [DP-299] ([NMeβAla]T[NMeF][NMeL][NMeF]I[NMeL][NMeA][NMeL]D[NMeF]A-Piperidide; lactam N-10) | – | – | 5.3 ×10⁻⁶ cm/s | 56 µL/min/mg
18 | CC[C@H](C)[C@@H]1NC(=O)[C@H](C)N(C)C(=O)[C@H](CC(C)C)N(C)C(=O)[C@H](Cc2ccccc2)NC(=O)[C@H]([C@@H](C)O)NC(=O)[C@H](C(C)C)N(C)C(=O)[C@H](C)N(C)C(=O)CN(C)C(=O)[C@@H](C(C)C)NC(=O)C[C@@H](C(=O)N(C)C(Cc2ccccc2)C(=O)N(C)[C@@H](Cc2ccccc2)C(=O)N[C@@H](C)C(=O)N2CCCCC2)NC1=O (stereo partly drawn) [DP-293] ([dV][Sar][NMeA][NMeV]TF[NMeL][NMeA]ID[ξNMeF][NMeF]A-Piperidide; lactam N-10) | – | – | 45 ×10⁻⁶ cm/s | 29 µL/min/mg
